Experimental data published in patent US7968570B2, “Isoindolone compounds and their use as metabotropic glutamate receptor potentiators” (AstraZeneca AB, priority 2004, dated 2011).
Like-named read-outs stand apart in the source and are kept apart here.

Biological target: T1, human mGluR2 receptor (Homo sapiens, UniProt Q14416)
T1 construct: expressed in transfected cells
Assay: [35S]-GTPγS binding assay of mGluR2 receptor activation
Assay type: biochemical
Procedure, shortened: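 CHO membranes stably expressing human mGluR2 (30 μg) preincubated 15 min at room temperature with compound (3 nM–300 μM), then 1 μM glutamate, 30 μM GDP, 0.1 nM [35S]-GTPγS, 30 min at 30° C in HEPES/NaCl/MgCl2. Filtration counting; EC50 and Emax relative to maximal glutamate effect by non-linear regression.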

[1] = membranes from CHO cells stably expressing human mGluR2, 1 μM glutamate

T1 sequence (Q14416 19-872): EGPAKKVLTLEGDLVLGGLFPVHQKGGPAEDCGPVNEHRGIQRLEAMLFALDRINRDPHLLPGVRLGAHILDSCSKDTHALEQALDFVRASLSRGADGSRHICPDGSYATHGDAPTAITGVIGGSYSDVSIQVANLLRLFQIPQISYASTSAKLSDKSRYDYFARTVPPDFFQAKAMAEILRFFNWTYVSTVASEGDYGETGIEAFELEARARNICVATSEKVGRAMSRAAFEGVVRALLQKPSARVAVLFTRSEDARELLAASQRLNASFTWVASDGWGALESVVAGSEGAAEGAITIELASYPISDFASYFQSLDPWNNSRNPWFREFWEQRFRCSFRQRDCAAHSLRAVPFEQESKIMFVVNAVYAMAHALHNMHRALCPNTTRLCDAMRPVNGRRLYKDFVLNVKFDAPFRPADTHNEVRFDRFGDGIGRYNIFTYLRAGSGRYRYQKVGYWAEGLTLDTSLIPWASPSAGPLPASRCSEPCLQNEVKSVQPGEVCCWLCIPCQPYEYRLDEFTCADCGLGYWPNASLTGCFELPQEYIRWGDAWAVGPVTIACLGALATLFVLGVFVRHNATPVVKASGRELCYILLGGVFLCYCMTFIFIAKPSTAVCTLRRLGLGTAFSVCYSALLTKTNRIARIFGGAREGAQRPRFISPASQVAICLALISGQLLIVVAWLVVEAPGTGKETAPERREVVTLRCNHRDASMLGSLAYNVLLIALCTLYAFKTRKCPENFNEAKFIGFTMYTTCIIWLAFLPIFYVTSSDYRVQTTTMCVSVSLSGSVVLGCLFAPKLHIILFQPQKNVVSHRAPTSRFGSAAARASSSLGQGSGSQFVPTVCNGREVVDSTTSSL

| SMILES | EC50 [1] [µM] | EC50 [µM] |
| --- | --- | --- |
| COc1cc(-c2cccnc2)cc2c1C(=O)N(Cc1ccc(OC(F)(F)F)cc1)C2 [Example 100, 7-Methoxy-5-pyridin-3-yl-2-(4-trifluoromethoxy-benzyl)-2,3-dihydroisoindol-1-one] | 0.22 |  |
| COc1cc(C2=CCN(C)CC2)cc2c1C(=O)N(Cc1ccc(OC(F)(F)F)cc1)C2 [Example 90, 7-Methoxy-5-(1-methyl-1,2,3,6-tetrahydro-pyridin-4-yl)-2-(4-trifluoromethoxy-benzyl)-2,3-dihydro-isoindol-1-one] | 3.82 |  |
| Cc1cc(N2CCC(N(C)C)C2)cc2c1C(=O)N(Cc1ccc(OC(F)(F)F)cc1)C2 (stereo not shown) [Example 115, 5-(3-dimethylamino-pyrollidin-1-yl)-7-methyl-2-(4-trifluoromethoxy-benzyl)-2,3-dihydroisoindol-1-one] | 0.3 |  |
| Cc1cc(N2CCN(CCc3ccncc3)CC2)cc2c1C(=O)N(Cc1ccc(OC(F)(F)F)cc1)C2 [Example 137] | 0.1 |  |
| Cc1cc(N2CCN3CCCC3C2)cc2c1C(=O)N(Cc1ccc(Cl)cc1)C2 (stereo not shown) [Example 118, 2-(4-Chlorobenzyl)-5-(hexahydropyrrolo [1,2-a]pyrazin-2-yl)-7-methyl-2,3-dihydroisoindol-1-one] | 0.81 |  |
| Cc1cc(Br)cc2c1C(=O)N(Cc1ccc(OC(F)(F)F)cc1)C2 [Example 30, 5-Bromo-7-methyl-2-(4-trifluoromethoxy-benzyl)-2,3-dihydro-isoindol-1-one] | 0.37 |  |
| Cc1cc(CN2CCN(c3ccccn3)CC2)cc2c1C(=O)N(Cc1ccc(OC(F)(F)F)cc1)C2 [Example 167, 7-Methyl-5-(4-pyridin-2-yl-piperazin-1-ylmethyl)-2-(4-trifluorometh-oxy-benzyl)-2,3-dihydro-isoindol-1-one] |  | 0.14 |
| Cc1cc(N2CCCN3CCCCC3C2)cc2c1C(=O)N(Cc1ccc(OC(F)(F)F)cc1)C2 (stereo not shown) [Example 122, 7-Methyl-5-(octahydropyrido [1,2-a][1,4]diazepin-2-yl)-2-(4-trifluoromethoxy-benzyl)-2,3-dihydroisoindol-1-one] | 3.55 |  |
| O=C1c2c(Cl)cc(CC3CCN(Cc4ccncc4)CC3)cc2CN1Cc1ccc(OC(F)(F)F)cc1 [Example 182] |  | 0.04 |
| Cc1cc(CN2CCC(N3CCCCC3)CC2)cc2c1C(=O)N(Cc1ccc(OC(F)(F)F)cc1)C2 [Example 49, 5-[1, 4″]Bipiperidinyl-1″-ylmethyl-7-methyl-2-(4-trifluoromethoxy-benzyl)-2,3-dihydro-isoindol-1-one] | 3.25 |  |
| Cc1cc(-c2nnc(CN3CCOCC3)o2)cc2c1C(=O)N(Cc1ccc(OC(F)(F)F)cc1)C2 [Example 176, 7-Methyl-5-(5-morpholin-4-ylmethyl-[1,3,4]oxadiazol-2-yl)-2-(4-trifluorometh-oxy-benzyl)-2,3-dihydro-isoindol-1-one] |  | 1.29 |
| Cc1cc(N2CCN3CCCC3C2)cc2c1C(=O)N(Cc1ccc(Oc3ccccc3)cc1)C2 (stereo not shown) [Example 116, 5-(Hexahydro-pyrrolo[1,2-a]pyrazin-2-yl)-7-methyl-2-(4-phenoxybenzyl)-2,3-dihydroisoindol-1-one] | 0.18 |  |
| Cc1cc(-c2cccnc2)cc2c1C(=O)N(Cc1ccc(Cl)cc1)C2 [Example 98, 2-(4-chlorobenzyl)-7-methyl-5-pyridin-3-yl-2,3-dihydroisoindol-1-one] | 0.1 |  |
| Cc1cc(CN2CCC(n3c(=O)[nH]c4ccccc43)CC2)cc2c1C(=O)N(Cc1ccc(OC(F)(F)F)cc1)C2 [Example 56, 1-{1-[7-Methyl-1-oxo-2-(4-trifluoromethoxy-benzyl)-2,3-dihydro-1H-isoindol-5-ylmethyl]-piperidin-4-yl}-1,3-dihydro-benzoimidazol-2-one] | 0.06 |  |
| O=C1c2ccc(N3CCOCC3)cc2CN1Cc1ccc(OC(F)(F)F)cc1 [Example 150, 5-Morpholin-4-yl-2-(4-trifluoromethoxy-benzyl)-2,3-dihydro-isoindol-1-one] | 8.76 |  |
| O=Cc1cnccc1-c1cc(Cl)c2c(c1)CN(Cc1ccc(Cl)cc1)C2=O [Example 108, 4-[7-Chloro-2-(4-chloro-benzyl)-1-oxo-2,3-dihydro-1H-isoindol-5-yl]-pyridine-3-carbaldehyde] | 0.46 |  |
| O=C(CN1CCN(c2ccc3c(c2)CN(Cc2ccc(OC(F)(F)F)cc2)C3=O)CC1)N1CCCC1 [Example 148, 5-[4-(2-Oxo-2-pyrrolidin-1-yl-ethyl)-piperazin-1-yl]-2-(4-trifluoromethoxy-benzyl)-2,3-dihydro-isoindol-1-one] | 6.78 |  |
| Cc1cc(C(=O)N2CCN(CCc3ccncc3)CC2)cc2c1C(=O)N(Cc1ccc(OC(F)(F)F)cc1)C2 [Example 163, 7-Methyl-5-[4-(2-pyridin-4-yl-ethyl)piperazine-1-carbonyl]-2-(4-trifluoromethoxy-benzyl)-2,3-dihydro-isoindol-1-one] | 1.21 |  |
| Cc1ccc(CN2Cc3cc(C4=CCN(C)CC4)ccc3C2=O)cc1 [Example 89] | 9.72 |  |

The remaining lines, values ahead:

| EC50 [1] [µM] | EC50 [µM] | SMILES |
| --- | --- | --- |
| 0.34 |  | Cc1cc(CNCCCc2ccccc2)cc2c1C(=O)N(Cc1ccc(OC(F)(F)F)cc1)C2 [Example 47, 7-Methyl-5-[(3-phenyl-propylamino)-methyl]-2-(4-trifluoromethoxy-benzyl)-2,3-dihydro-isoindol-1-one] |
| 0.7 |  | Cc1cc(N2CCN(Cc3ccncc3)CC2)cc2c1C(=O)N(Cc1ccc(OC(F)(F)F)cc1)C2 [Example 136, 7-Methyl-5-(4-pyridin-4-ylmethyl-piperazin-1-yl)-2-(4-trifluoromethoxy-benzyl)-2,3-dihydro-isoindol-1-one] |
|  | 0.1 | Cc1cc(-c2nc(CN(C)C)no2)cc2c1C(=O)N(Cc1ccc(OC(F)(F)F)cc1)C2 [Example 180, 5-(3-Dimethylamino-methyl-[1,2,4]oxadiazol-5-yl)-7-methyl-2-(4-trifluorometh-oxy-benzyl)-2,3-dihydro-isoindol-1-one] |
| 0.29 |  | Cc1cc(-c2cccc(CN(C)C)c2)cc2c1C(=O)N(Cc1ccc(OC(F)(F)F)cc1)C2 [Example 87, 5-(3-Dimethylamino-methyl-phenyl)-7-methyl-2-(4-trifluoromethoxy-benzyl)-2,3-dihydro-isoindol-1-one] |
| 0.41 |  | Cc1cc(CNC2Cc3ccccc3C2)cc2c1C(=O)N(Cc1ccc(OC(F)(F)F)cc1)C2 [Example 48, 5-(Indan-2-ylaminomethyl)-7-methyl-2-(4-trifluoromethoxy-benzyl)-2,3-dihydro-isoindol-1-one] |
| 0.61 |  | CN1CCN(c2cc(Cl)c3c(c2)CN(Cc2ccc(OC(F)(F)F)cc2)C3=O)CC1 [Example 131, 7-Chloro-5-(4-methyl-piperizin-1-yl)-2-(4-trifluoromethoxy-benzyl)-2,3-dihydro-isoindol-1-one] |
| 2.52 |  | COc1cc(N2CCC(N(C)C)C2)cc2c1C(=O)N(Cc1ccc(OC(F)(F)F)cc1)C2 (stereo not shown) [Example 126, 5-(3- Dimethylaminopyrrolidin-1-yl)-7-methoxy-2-(4-trifluoromethoxy-benzyl)-2,3-dihydroisoindol-1-one] |
| 4.42 |  | CCCN1CCN(c2ccc3c(c2)CN(Cc2ccc(OC(F)(F)F)cc2)C3=O)CC1 [Example 146, 5-(4-Propyl-piperazin-1-yl)-2-(4-tri-fluoromethoxy-benzyl)-2,3-dihydro-isoindol-1-one] |
| 2.52 |  | Cc1ccc(CN2Cc3cc(NC4CCN(C(=O)OC(C)(C)C)C4)ccc3C2=O)cc1 (stereo not shown) [Example 110, 3-[2-(4-Methyl-benzyl)-1-oxo-2,3-dihydro-1H-isoindol-5-ylamino]-pyrrolidine-1-carboxylic acid tert-butyl ester] |
